Measurements from ChEMBL document CHEMBL3286250, “Oxirapentyns F-K from the marine-sediment-derived fungus Isaria felina KMM 4639” (J Nat Prod, 2014).
Active and inactive are the calls of the source. The rule behind the calls is not given here.

Tests used:
[1] = tested on: Bacillus subtilis; experiment: Antimicrobial activity against Bacillus subtilis KMM 430 by agar diffusion method; type: functional, organism-based
[2] = tested on: Escherichia coli; experiment: Antimicrobial activity against Escherichia coli ATCC 15034 by agar diffusion method; type: functional, organism-based
[3] = tested on: Pseudomonas aeruginosa; experiment: Antimicrobial activity against Pseudomonas aeruginosa KMM 433 by agar diffusion method; type: functional, organism-based
[4] = tested on: Candida albicans; experiment: Antimicrobial activity against Candida albicans KMM 455 by agar diffusion method; type: functional, organism-based
[5] = tested on: Staphylococcus aureus; experiment: Antimicrobial activity against Staphylococcus aureus ATCC 21027 by agar diffusion method; type: functional, organism-based
[6] = tested on: HL-60; experiment: Cytotoxicity against human HL60 cells after 46 hrs by MTS assay; type: functional, cell-based; settings: HL-60, 46 h
[7] = Cytotoxicity against CD1 mouse erythrocytes up to 100 uM after 46 hrs by MTS assay; type: cell-based; settings: erythrocyte
[8] = tested on: THP-1; experiment: Cytotoxicity against human THP1 cells after 46 hrs by MTS assay; type: functional, cell-based; settings: THP-1, 46 h
[9] = Cytotoxicity against CD1 mouse splenocytes up to 100 uM after 46 hrs by MTS assay; type: cell-based; settings: splenocyte

| Compound | Activity [1] | Activity [2] | Activity [3] | Activity [4] | Activity [5] | IC50 [6] [µM] | Activity [7] | IC50 [8] [µM] | Activity [9] |
| --- | --- | --- | --- | --- | --- | --- | --- | --- | --- |
| C=C(C)C#C[C@]1(O)[C@@H](O)[C@@H]2OC(C)(C)[C@H](OC(C)=O)C[C@@]23O[C@H]3[C@@H]1O | inactive | inactive | inactive | inactive | inactive |  |  |  |  |
| COC(=O)/C=C/C(O)=C1\COCC(OC(C)=O)=C1C(=O)OC | inactive | inactive | inactive | inactive | inactive | 4.3 | Non-toxic | 37.4 | Non-toxic |
| CC(=O)O[C@@H]1C[C@]23O[C@H]2C2=C(C(=O)CC(C)(C)O2)[C@@H](O)[C@@H]3OC1(C)C | inactive | inactive | inactive | inactive | inactive |  |  |  |  |
| C=C(C)C#C[C@@]1(O)[C@@H](O)[C@H](O)[C@]2(OC(C)=O)C[C@@H](O)C(C)(C)O[C@H]2[C@@H]1O | inactive | inactive | inactive | inactive | inactive |  |  |  |  |
| C=C(C)C#C[C@]12O[C@H]1[C@@H]1OC(C)(C)[C@H](OC(C)=O)C[C@@]1(O)[C@@H](O)[C@@H]2O | inactive | inactive | inactive | inactive | inactive |  |  |  |  |
